Consider 5 compounds from ChEMBL document CHEMBL1201862, “PubChem BioAssay data set” (2004).

Experiment in all cases: NCI-60 cell line screen, 48 h
Assay [1] deals with A498.
For assay [2], the system named is ACHN.
Assay [3] relates to CAKI-1.
Assay [4] deals with HL-60.
Assay [5] relates to HOP-62.
Assay [6] relates to HOP-92.
The subject of assay [7] is IGROV-1.
Assay [8] has as its system K562.
Assay [9] relates to LOX IMVI.
Assay [10] relates to M14.
Assay [11] relates to Malme-3M.
Assay [12] has as its system NCI-H226.
Assay [13] relates to NCI-H522.
The test system of assay [14] is OVCAR-3.
For assay [15], the system named is OVCAR-5.
Assay [16] has as its system OVCAR-8.
Assay [17] relates to SF-268.
Assay [18] concerns SF-295.
For assay [19], the system named is SNB-19.
Assay [20] has as its system SW-620.

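1) Cells in 96-well plates. 2) Compound, 48 h, 5 concentrations. 3) Linear interpolation between surrounding doses. 4) Unreached endpoint = highest concentration. GI50 = concentration required for 50% inhibition of growth.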 Active and inactive are the calls of the source. Cut-off read from the data, not from the text of the source: active = GI50 up to about 1.1 µM and inactive = higher. Bounds are passed on as bounds.

`COc1cc(S(=O)(=O)Nc2ccc(-c3csc(N4C(=O)C(C)SC4c4cccc(Oc5ccccc5)c4)n3)cc2)ccc1Cl` (centres undefined): the GI50 in assay [1] was 27.4 µM (inactive); in assay [2], 57.8 µM (inactive); in assay [3] it was 46 µM (inactive); in assay [4], 27.2 µM (inactive); in assay [5], 50.7 µM (inactive); in assay [6] it was 32.7 µM (inactive). Also, the GI50 was 39 µM (inactive) in [7]; 36.5 µM (inactive) in [8]; 32.4 µM (inactive) in [9]; 34.7 µM (inactive) in assay [10]; > 100 µM (inactive) in assay [11]; 27.1 µM (inactive) in assay [12]. Also, the GI50 in assay [13] was 29.8 µM (inactive); in assay [14], 43.6 µM (inactive); in assay [15], 83.2 µM (inactive); in assay [16], 37.5 µM (inactive); in assay [17], 26.7 µM (inactive); in assay [18], 46.2 µM (inactive). Besides, the GI50 in assay [19] was 86.9 µM (inactive); in assay [20] it was 59 µM (inactive).
`COC(=O)C(=O)C(C(=O)Nc1cccc(C)c1C)C1Sc2ccccc2NC1=O` (centres undefined): the GI50 in assay [1] is 11.5 µM (inactive); in assay [2], > 25 µM (inactive); in [3], > 25 µM (inactive); in [4], 4.89 µM (inactive); in [5] it was 19.6 µM (inactive); in assay [6] it was 10.4 µM (inactive). Also, the GI50 is 16.8 µM (inactive) in assay [7]; 9.79 µM (inactive) in [8]; 13.9 µM (inactive) in [9]; 8.55 µM (inactive) in assay [10]; 6.37 µM (inactive) in [11]; 16.7 µM (inactive) in assay [12]. Besides, the GI50 in [13] was 15.8 µM (inactive); in assay [14], 20 µM (inactive); in [15] it was > 25 µM (inactive); in assay [16], 19.5 µM (inactive); in [17] it was 17.6 µM (inactive); in [18], 12.1 µM (inactive). Besides, the values for the GI50 in [19] and in assay [20] were 21.9 µM (inactive) and 8.55 µM (inactive), respectively.
For `Cc1cc(C)c(C2=NO[C@@H]3[C@H]2C(=O)C=C2N(Cc4ccccc4)CCO[C@@]23O)c(C)c1`, the GI50 was > 100 µM (inactive) in [1]; 1 µM (active) in [3]; > 100 µM (inactive) in assay [4]; > 100 µM (inactive) in assay [5]; > 100 µM (inactive) in assay [6]; > 100 µM (inactive) in [7]. Moreover, the GI50 in [8], in [9], in assay [11], in assay [12], in [13] and in assay [14] was > 100 µM (inactive) each time. The GI50 in assay [15], in assay [16], in [17], in assay [18], in [19] and in [20] was > 100 µM (inactive) each time.
On to `CN(C)CCNC(=O)c1ccc(Cl)c2ccc(-c3ccccc3)nc12`, for which the GI50 was 5.16 µM (inactive) in assay [1]; 2.69 µM (inactive) in assay [3]; 2.58 µM (inactive) in [4]; 1.52 µM (inactive) in assay [5]; 2.02 µM (inactive) in assay [6]; 3.48 µM (inactive) in assay [7]. For the same compound, the GI50 is 2.27 µM (inactive) in assay [8]; 2.34 µM (inactive) in assay [9]; 3.52 µM (inactive) in assay [11]; 2.32 µM (inactive) in [12]; 3.89 µM (inactive) in [13]; 5.4 µM (inactive) in assay [14]. For the same compound, the GI50 in [15] is 3.49 µM (inactive); in [16], 2.57 µM (inactive); in [17] it was 4.45 µM (inactive); in [18] it was 2.96 µM (inactive); in [19], 3.06 µM (inactive); in [20] it was 2.19 µM (inactive).
As for `COc1cc(C2c3cc4c(cc3[C@@H](Nc3cccc([N+](=O)[O-])c3)C3COC(=O)[C@H]23)OCO4)cc(OC)c1O` (some centres undefined), the GI50 in assay [1] was 1.46 µM (inactive); in assay [3], 1.03 µM (active); in [4], 1.05 µM (active); in assay [5], 0.796 µM (active); in [6], 2.92 µM (inactive); in assay [7], 6.65 µM (inactive). In addition, the GI50 was 2.94 µM (inactive) in assay [8]; 1.63 µM (inactive) in assay [9]; 2.62 µM (inactive) in assay [11]; 1.85 µM (inactive) in [12]; 2.83 µM (inactive) in assay [13]; 5.69 µM (inactive) in assay [14]. The GI50 in [15] is 2.16 µM (inactive); in [16] it was 2.51 µM (inactive); in assay [17], 2.91 µM (inactive); in assay [18], 1.36 µM (inactive); in assay [19], 2.5 µM (inactive); in [20], 2.28 µM (inactive).
